The record followed here is patent US20230000842A1, “METHODS OF TREATING CARTILAGE DISORDERS THROUGH INHIBITION OF CLK AND DYRK” (SAMUMED, LLC, priority 2019, published 2023).

In one assay the target is CLK2 kinase (Homo sapiens, UniProt P49760). The experiment in a line: CLK2 kinase activity assay (Z-lyte FRET).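 Further: FRET read-out as coumarin to fluorescein emission ratio, unphosphorylated peptide as 0% and phosphorylated peptide as 100% controls, duplicate reactions, non-linear regression fit of dose-response curves.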 The assay is classed as biochemical. Conditions: Z-lyte Ser/Thr 6 peptide, 60 μM ATP, 1 h at room temperature.
For a further assay, the target named is CLK3 kinase (Homo sapiens, UniProt P49761). The experiment in a line: CLK3 kinase activity assay (Z-lyte FRET).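 Further: kinase activity read as coumarin/fluorescein emission ratio by FRET, unphosphorylated peptide as 0% and phosphorylated peptide as 100% control, values from non-linear regression of dose-response curves.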 The assay is classed as biochemical. Conditions: Z-lyte Ser/Thr 18 peptide, 156 μM ATP, 1 h at room temperature.
Assay [1] has as its system MMP-3 levels in supernatant of chondrocytes stimulated with IL1-β. Nature of the assay: Chondrocyte protection assay compound screening (MMP-3 LANCE Ultra). It is filed as cell-based, human. Conditions: Homo sapiens, Chondrocyte, IL1-β 10 ng/mL overnight, 11-point curves from 3 μM to 0.05 nM; for Emax: read-out: Maximum % Inhibition. An outline of the steps:
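Primary human chondrocytes (passage 2–5) in differentiation medium were stimulated with 10 ng/mL IL1-β for an overnight incubation at 37 °C. MMP-3 in 1:7-diluted supernatant was read by TR-FRET immunoassay against a standard curve, normalised to IL1-β-stimulated wells; EC50 and maximum % inhibition came from nonlinear regression.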
On the technique in general: TR-FRET usually uses a lanthanide donor and a delayed reading to cut background.

Assay [2] concerns Wnt pathway activity (SW480 colon carcinoma cells stably expressing the Sp5-Luc reporter). The experiment in a line: Wnt pathway activity screening assay (Sp5-Luc reporter gene assay). Conditions: Homo sapiens, SW480, Table 4; SW480 cells stably expressing Sp5-Luc reporter, 10-point dose-response from 10 μM, 36 to 48 hours.

For orientation: EC50 means the concentration that produces a half-maximal response. A low value points to an effect from little substance.

Chain of CLK2 kinase (P49760 whole entry): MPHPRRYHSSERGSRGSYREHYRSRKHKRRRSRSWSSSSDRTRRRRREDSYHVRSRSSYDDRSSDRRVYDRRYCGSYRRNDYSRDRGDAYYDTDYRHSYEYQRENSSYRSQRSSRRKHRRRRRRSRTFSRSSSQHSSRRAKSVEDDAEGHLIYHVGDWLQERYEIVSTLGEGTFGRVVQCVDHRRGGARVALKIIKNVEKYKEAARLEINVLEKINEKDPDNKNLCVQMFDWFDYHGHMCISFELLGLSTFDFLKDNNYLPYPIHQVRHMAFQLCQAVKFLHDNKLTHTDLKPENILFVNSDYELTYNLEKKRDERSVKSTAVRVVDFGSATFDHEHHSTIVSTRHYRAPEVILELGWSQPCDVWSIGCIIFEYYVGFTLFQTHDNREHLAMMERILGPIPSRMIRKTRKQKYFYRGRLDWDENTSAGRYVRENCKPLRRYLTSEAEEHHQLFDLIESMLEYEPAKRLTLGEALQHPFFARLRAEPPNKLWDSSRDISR
Chain of CLK3 kinase (P49761 whole entry): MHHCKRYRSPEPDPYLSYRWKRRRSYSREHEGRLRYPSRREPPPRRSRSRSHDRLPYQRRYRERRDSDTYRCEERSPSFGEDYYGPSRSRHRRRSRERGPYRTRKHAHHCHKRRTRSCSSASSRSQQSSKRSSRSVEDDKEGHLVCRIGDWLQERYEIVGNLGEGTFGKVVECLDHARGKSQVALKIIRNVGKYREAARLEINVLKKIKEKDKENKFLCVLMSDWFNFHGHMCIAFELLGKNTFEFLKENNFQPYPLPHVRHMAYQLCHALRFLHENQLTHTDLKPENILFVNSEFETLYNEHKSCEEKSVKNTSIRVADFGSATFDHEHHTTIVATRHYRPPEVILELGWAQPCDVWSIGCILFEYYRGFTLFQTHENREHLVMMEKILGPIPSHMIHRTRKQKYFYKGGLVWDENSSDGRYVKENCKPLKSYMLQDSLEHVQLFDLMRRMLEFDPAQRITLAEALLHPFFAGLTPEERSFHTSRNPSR
Description for CLK3 kinase: This is a non-radioactive assay using fluorescence resonance energy transfer (FRET) between coumarin and fluorescein to detect kinase activity which is represented as a ratio of coumarin emission/fluorescein emission.
The mixture was allowed to incubate with the representative compounds for one hour at room temperature. All reactions were performed in duplicate. Unphosphorylated (“0% Control”) and phosphorylated (“100% control”) forms of Ser/Thr 18 served as control reactions. Additionally, an 11-point dose-response curve of Staurosporine (1 μM top) was run to serve as a positive compound control.
After incubation, Development Reagent A was diluted in Development Buffer then added to the reaction and allowed to further incubate for one hour at room temperature.
Dose-response curves were generated and inhibitory concentration (IC50) values were calculated using non-linear regression curve fit in the Dotmatics' Studies Software (Bishops Stortford, UK).

Regarding `COc1ccc(NC(=O)c2n[nH]cc2/C=C/c2cncc(CN3CCCCC3)c2)cn1` [compound 24], the EC50 on CLK2 kinase is 26 nM; at CLK3 kinase it was 1250 nM; in assay [1], not below 3000 nM; in assay [2], 1450 nM. Further, the Emax in assay [1] was determined as 74.1%.

`CS(=O)(=O)c1ccc(NC(=O)c2n[nH]c3ccc(-c4cncc(CN5CCCCC5)c4)cc23)cn1` [compound 89]: the EC50 on CLK2 kinase worked out at 1 nM; at CLK3 kinase, 14 nM; in assay [1] it was 5.5 nM; in assay [2], 27 nM. Moreover, the Emax in assay [1] was 79.8%.

`O=C(Nc1ccc(N2CCCC2)nc1)c1n[nH]c2ccc(-c3cncc(CN4CCC4)c3)cc12` [compound 68]: the EC50 at CLK2 kinase is 1 nM; on CLK3 kinase it was 139 nM; in assay [1], not below 3000 nM; in assay [2], more than 10000 nM. The Emax in assay [1] came to 26.6%.

With `O=C(Nc1cccnc1)c1n[nH]c2cnc(-c3cncc(CN4CCCCC4)c3)cc12` [compound 118], the EC50 stood at 8 nM at CLK2 kinase, 601 nM on CLK3 kinase, 138 nM in assay [1] and 848 nM in assay [2]. Further, the Emax in assay [1] was 21.1%.

Take `NC1CN(c2cncc(-c3ccc4[nH]nc(-c5nc6ccncc6[nH]5)c4c3)c2)C1` [compound 205]: the EC50 at CLK2 kinase amounted to 1 nM; on CLK3 kinase, 182 nM; in assay [1] it was 20.8 nM; in assay [2] it was 344 nM. Besides, the Emax in assay [1] stood at 61.5%.

For the compound `O=C(Nc1ccc(OC(CO)CO)nc1)c1n[nH]c2ccc(-c3cncc(CN4CCCCC4)c3)cc12` [compound 83], the EC50 on CLK2 kinase was found to be 5 nM; at CLK3 kinase, 73 nM; in assay [1] it was 303 nM; in assay [2] it was 500 nM.

Regarding `O=C(Nc1ccc(CN2CCCC2)cc1)c1n[nH]c2ccc(-c3cncnc3)cc12` [compound 103], the EC50 at CLK2 kinase worked out at 2 nM; on CLK3 kinase, 1430 nM; in assay [1] it was 307 nM; in assay [2], 1310 nM. Further, in assay [1], the Emax came to 36.3%.

`Cc1ncc(-c2ccc3[nH]nc(-c4nc5c(-c6cc(F)cc(NCCN(C)C)c6)ccnc5[nH]4)c3n2)n1C` [compound 287]: the EC50 at CLK2 kinase is 4 nM; on CLK3 kinase it was 44 nM; in assay [1] it was 12.8 nM; in assay [2] it was 620 nM. The Emax in assay [1] is 74.2%.

For the compound `CC(C)n1cc(C(=O)Nc2cc3cc(-c4cncc(NC5CCN(C)CC5)n4)ncc3cn2)cn1` [compound 614], the EC50 was 7 nM at CLK2 kinase, 97 nM at CLK3 kinase, not below 3000 nM in assay [1] and 164 nM in assay [2]. The Emax in assay [1] amounted to 41.1%.

Turning to `Cc1cn(-c2cncc3[nH]c(-c4n[nH]c5ccc(-c6cncc(NC(=O)CC(C)C)c6)cc45)nc23)cn1` [compound 225], the EC50 turned out to be 2 nM at CLK2 kinase, 16 nM on CLK3 kinase, 845 nM in assay [1] and 4570 nM in assay [2]. In addition, the Emax in assay [1] came out at 89.2%.

Take `O=C(Nc1cncc(-c2ccc3[nH]nc(-c4nc5c(-c6cccnc6)cncc5[nH]4)c3c2)c1)c1ccccc1` [compound 192]: the EC50 on CLK2 kinase was 5 nM; on CLK3 kinase it was 17 nM; in assay [1], 1.9 nM; in assay [2], more than 10000 nM. For the same compound, in assay [1], the Emax came out at 95.5%.

On to `Cc1cc(-c2ccc3[nH]nc(C(=O)Nc4ccc(OC5CCN(C)CC5)cc4)c3c2)sn1` [compound 117], for which the EC50 came out at 2 nM at CLK2 kinase, 147 nM at CLK3 kinase, 44.2 nM in assay [1] and 645 nM in assay [2]. The Emax in assay [1] worked out at 94.4%.

Turning to `Cc1n[nH]c2ccc(-c3cc(OC[C@H](N)Cc4ccccc4)cnn3)cc12` [compound 53], the EC50 is 19 nM on CLK2 kinase, 3490 nM on CLK3 kinase, not below 3000 nM in assay [1] and 1150 nM in assay [2]. In assay [1], the Emax is 74.9%.

Take `Cn1ncc(-c2ccc3cnc(NC(=O)C4CCN(C(=O)c5ccccc5)CC4)cc3c2)c1CN1CCCCC1` [compound 571]: the EC50 on CLK2 kinase was 7 nM; on CLK3 kinase, 318 nM; in assay [1], 35 nM; in assay [2], 706 nM. Also, the Emax in assay [1] turned out to be 51%.

In the case of `CN1CCC(Oc2ccc(NC(=O)c3n[nH]cc3/C=C/c3cccnc3)cn2)CC1` [compound 21], the concentration for a half-maximal effect (EC50) is 4 nM at CLK2 kinase, 733 nM at CLK3 kinase, not below 3000 nM in assay [1] and 964 nM in assay [2]. Besides, in assay [1], the Emax worked out at 92.6%.

Turning to `Cc1ncc(-c2ccc3cnc(NC(=O)C4(F)CC4)cc3c2)n1C` [compound 587], the EC50 was 8 nM on CLK2 kinase, 678 nM at CLK3 kinase, 18.7 nM in assay [1] and 2210 nM in assay [2].

With `O=C(Nc1ccc(C2CCC(F)(F)C2)nc1)c1n[nH]cc1C#Cc1cccnc1` (stereo not drawn) [compound 27], the EC50 is 32 nM on CLK2 kinase, more than 10000 nM on CLK3 kinase, not below 3000 nM in assay [1] and more than 10000 nM in assay [2]. For the same compound, the Emax in assay [1] came to 88.5%.

Take `CC(C)NC(=O)c1n[nH]c2ccc(-c3cncc(NC4CCNCC4)n3)cc12` [compound 105]: the EC50 on CLK2 kinase was determined as 1 nM; at CLK3 kinase, 2440 nM; in assay [1], 2740 nM; in assay [2], 2400 nM. Also, the Emax in assay [1] is 53.1%.

As for `CC(C)OC(=O)N1CCC(n2cc(C(=O)Nc3cc4cc(-c5cnn(C)c5)ncc4cn3)cn2)CC1` [compound 609], the EC50 was 6 nM at CLK2 kinase, 61 nM at CLK3 kinase, 154 nM in assay [1] and 824 nM in assay [2]. Moreover, in assay [1], the Emax turned out to be 50.2%.

Regarding `O=C(Nc1cc2cc(-c3cncc(CN4CCC(O)CC4)c3)ccc2cn1)c1ccc(F)cc1` [compound 597], the EC50 is 9 nM on CLK2 kinase, 94 nM at CLK3 kinase, 2.9 nM in assay [1] and 382 nM in assay [2]. The Emax in assay [1] amounted to 3.7%.

`CN1CCC(n2cc(C(=O)Nc3ncc4ccc(-c5cncc6[nH]ccc56)cc4n3)cn2)CC1` [compound 616]: the EC50 at CLK2 kinase was 6 nM; on CLK3 kinase, 19 nM; in assay [1], not below 3000 nM; in assay [2] it was 1400 nM. Moreover, the Emax in assay [1] came out at 48.3%.

For the compound `Cc1n[nH]c2ccc(-c3cncc(N4CCC(O)CC4)n3)cc12` [compound 39], the EC50 on CLK2 kinase stood at 25 nM; at CLK3 kinase, 4260 nM; in assay [1], 47.8 nM; in assay [2], 1900 nM. In assay [1], the Emax stood at 60.8%.

For `CN1CCC(n2cc(C(=O)Nc3cc4cc(-c5cnc6cc[nH]c6c5)ccc4cn3)cn2)CC1` [compound 605], the EC50 is 2 nM at CLK2 kinase, 9 nM at CLK3 kinase, not below 3000 nM in assay [1] and 26.8 nM in assay [2]. Also, the Emax in assay [1] stood at 59.9%.

For the compound `O=C(Nc1c[nH]nc1C(=O)Nc1ccc(N2CCCCC2)nc1)c1cncc(OC2CCNCC2)c1` [compound 13], the EC50 at CLK2 kinase is 14 nM; on CLK3 kinase, 3500 nM; in assay [1], not below 3000 nM; in assay [2], 662 nM. Besides, the Emax in assay [1] was determined as 71%.

Turning to `Cc1n[nH]c2ccc(-c3cncc(NCC4(F)CNC4)n3)cc12` [compound 48], the EC50 on CLK2 kinase turned out to be 3 nM; at CLK3 kinase it was 1100 nM; in assay [1], 2270 nM; in assay [2], 780 nM. Also, in assay [1], the Emax worked out at 100%.

Regarding `CC(C)OC(=O)N1CCC(n2cc(C(=O)Nc3cc4cc(-c5cnn(C)c5)ccc4cn3)cn2)CC1` [compound 562], the EC50 on CLK2 kinase stood at 1 nM; on CLK3 kinase it was 20 nM; in assay [1], 88.1 nM; in assay [2] it was 54.5 nM. Further, in assay [1], the Emax is 34.8%.

For `O=C(Nc1c[nH]nc1-c1nc2c(-c3cccc(F)c3)cccc2[nH]1)c1cccnc1` [compound 15], the EC50 on CLK2 kinase was found to be 2 nM; at CLK3 kinase, 485 nM; in assay [1], 76.5 nM; in assay [2] it was 2.9 nM. Further, the Emax in assay [1] turned out to be 100%.

Regarding `CN(C)C1CN(c2ncc(C(=O)Nc3cc4cc(-c5cnn(C)c5)ccc4cn3)s2)C1` [compound 564], the EC50 at CLK2 kinase was determined as 2 nM; on CLK3 kinase, 37 nM; in assay [1], 71.4 nM; in assay [2] it was 1320 nM. The Emax in assay [1] was 0%.

Consider `CC(C)N1CCC(n2cc(C(=O)Nc3cc4cc(-c5cn(C)nn5)ccc4cn3)cn2)CC1` [compound 579], for which the EC50 amounted to 2 nM at CLK2 kinase, 19 nM on CLK3 kinase, 492 nM in assay [1] and 32.7 nM in assay [2]. Further, the Emax in assay [1] amounted to 91%.

Regarding `Cc1[nH]nc(C(=O)Nc2ccc(OC3CCN(C)CC3)nc2)c1/C=C/c1cccnc1` [compound 22], the EC50 at CLK2 kinase is 7 nM; on CLK3 kinase it was 2330 nM; in assay [1] it was 17.8 nM; in assay [2], more than 10000 nM. Besides, the Emax in assay [1] turned out to be 64.6%.

`O=C(Nc1cncc(-c2ccc3[nH]nc(-c4cc5cnccc5[nH]4)c3c2)c1)C1CCCCC1` [compound 431]: the EC50 came out at 1 nM at CLK2 kinase, 18 nM on CLK3 kinase, 6.7 nM in assay [1] and 285 nM in assay [2]. Moreover, in assay [1], the Emax worked out at 100%.
